Measurements as given in patent US20110118262A1, “Pyrrolidinyl and Piperidinyl Compounds Useful as NHE-1 Inhibitiors” (BOEHRINGER INGELHEIM INTERNATIONAL GMBH, priority 2008, published 2011).

Biological target: T1, NHE-1 (Homo sapiens, UniProt P19634)
T1 construct: endogenous in cells; host or cells: HT-29
Assay: Evaluation of NHE-1 Inhibition (pHi) in HT-29 cells
Assay type: cell-based
Conditions: BCECF dye, 50% inhibition of the intracellular pH recovery, read-out: NHE1 HT29 pHi IC50
In short: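 Intracellular pH measured with BCECF in HT-29 cells after 24 h culture. Cells dye-loaded 30 min at 37° C, then acid-loaded with NH4Cl-containing choline buffer (pH 7.5) for 30 min at RT. Compounds added on an FDSS6000 fluorescence reader.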

T1 sequence (P19634 whole entry): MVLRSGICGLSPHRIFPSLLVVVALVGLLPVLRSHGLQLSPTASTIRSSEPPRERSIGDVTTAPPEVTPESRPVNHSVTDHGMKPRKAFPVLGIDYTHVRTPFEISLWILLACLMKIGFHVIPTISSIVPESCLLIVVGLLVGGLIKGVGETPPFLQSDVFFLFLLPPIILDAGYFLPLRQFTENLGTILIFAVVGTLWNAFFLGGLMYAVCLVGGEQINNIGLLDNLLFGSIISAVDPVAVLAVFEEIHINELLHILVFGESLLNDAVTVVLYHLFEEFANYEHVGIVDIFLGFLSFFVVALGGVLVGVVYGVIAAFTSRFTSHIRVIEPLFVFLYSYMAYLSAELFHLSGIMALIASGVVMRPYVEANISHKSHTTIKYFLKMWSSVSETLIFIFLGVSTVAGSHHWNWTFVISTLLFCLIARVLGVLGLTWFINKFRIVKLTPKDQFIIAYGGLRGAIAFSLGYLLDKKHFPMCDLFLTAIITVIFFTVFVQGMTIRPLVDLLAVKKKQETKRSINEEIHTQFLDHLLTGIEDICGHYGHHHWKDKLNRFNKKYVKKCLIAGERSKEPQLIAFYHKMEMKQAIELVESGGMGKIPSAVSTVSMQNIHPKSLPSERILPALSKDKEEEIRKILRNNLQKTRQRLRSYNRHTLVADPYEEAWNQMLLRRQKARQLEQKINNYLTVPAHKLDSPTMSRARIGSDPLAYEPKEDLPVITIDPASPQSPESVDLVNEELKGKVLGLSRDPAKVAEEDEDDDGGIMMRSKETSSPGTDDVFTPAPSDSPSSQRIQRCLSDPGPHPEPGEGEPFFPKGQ

| SMILES | IC50 |
| --- | --- |
| COc1ncccc1C(=O)N1CCC(c2ccc(C(=O)NC(=N)N)cc2C(F)(F)F)CC1 [N-{4-[1-(2-Methoxy-pyridine-3-carbonyl)-piperidin-4-yl]-3-trifluoromethyl-benzoyl}-guanidine] | 0.042 µM |
| COc1cc(C(=O)N2CCC(c3ccc(C(=O)NC(=N)N)cc3C(F)(F)F)CC2)ccn1 [N-{4-[1-(2-Methoxy-pyridine-4-carbonyl)-piperidin-4-yl]-3-trifluoromethyl-benzoyl}-guanidine] | 0.04 µM |
| Cc1ccccc1C(=O)N1CCC(c2ccc(C(=O)NC(=N)N)cc2C(F)(F)F)CC1 [N-{4-[1-(2-Methyl-benzoyl)-piperidin-4-yl]-3-trifluoromethyl-benzoyl}-guanidine] | 0.051 µM |
| CC1(C(=O)N2CCC(c3ccc(C(=O)NC(=N)N)cc3C(F)(F)F)CC2)CCCN1 (stereo not shown) [N-{4-[1-(2-Methyl-pyrrolidine-2-carbonyl)-piperidin-4-yl]-3-trifluoromethyl-benzoyl}-guanidine] | 0.012 µM |
| N=C(N)NC(=O)c1ccc(C2CCN(C(=O)CN3CCOCC3)CC2)c(C(F)(F)F)c1 [N-{4-[1-(2-Morpholin-4-yl-acetyl)-piperidin-4-yl]-3-trifluoromethyl-benzoyl}-guanidine] | 0.025 µM |
| N=C(N)NC(=O)c1ccc(C2CCN(C(=O)Cc3cccnc3)CC2)c(C(F)(F)F)c1 [N-{4-[1-(2-Pyridin-3-yl-acetyl)-piperidin-4-yl]-3-trifluoromethyl-benzoyl}-guanidine] | 0.027 µM |
| Cc1cc(C2CCN(C(=O)CN(C)C)CC2)c(C(F)(F)F)cc1C(=O)NC(=N)N [N-{4-[1-(2-dimethylamino-acetyl)-piperidin-4-yl]-2-methyl-5-trifluoromethyl-benzoyl}-guanidine] | 0.006 µM |
| N=C(N)NC(=O)c1ccc(C2CCN(C(=O)CCN)CC2)c(C(F)(F)F)c1 [N-{4-[1-(3-Amino-propionyl)-piperidin-4-yl]-3-trifluoromethyl-benzoyl}-guanidine] | 0.008 µM |
| N=C(N)NC(=O)c1ccc(C2CCN(C(=O)c3cccc(Br)c3)CC2)c(C(F)(F)F)c1 [N-{4-[1-(3-Bromo-benzoyl)-piperidin-4-yl]-3-trifluoromethyl-benzoyl}-guanidine] | 0.18 µM |
| COc1cc(C2CCN(C(=O)c3cccc(C#N)c3)CC2)c(C(F)(F)F)cc1C(=O)NC(=N)N [N-{4-[1-(3-Cyano-benzoyl)-piperidin-4-yl]-2-methoxy-5-trifluoromethyl-benzoyl}-guanidine] | 0.019 µM |
| N#Cc1cccc(C(=O)N2CCC(c3ccc(C(=O)NC(=N)N)cc3C(F)(F)F)CC2)c1 [N-{4-[1-(3-Cyano-benzoyl)-piperidin-4-yl]-3-trifluoromethyl-benzoyl}-guanidine] | 0.065 µM |
| CN(C)c1cccc(C(=O)N2CCC(c3ccc(C(=O)NC(=N)N)cc3C(F)(F)F)CC2)c1 [N-{4-[1-(3-Dimethylamino-benzoyl)-piperidin-4-yl]-3-trifluoromethyl-benzoyl}-guanidine] | 0.077 µM |
| CN(C)CCC(=O)N1CCC(c2ccc(C(=O)NC(=N)N)cc2C(F)(F)F)CC1 [N-{4-[1-(3-Dimethylamino-propionyl)-piperidin-4-yl]-3-trifluoromethyl-benzoyl}-guanidine] | 0.01 µM |
| N=C(N)NC(=O)c1ccc(C2CCN(C(=O)c3cccc(F)c3)CC2)c(C(F)(F)F)c1 [N-{4-[1-(3-Fluoro-benzoyl)-piperidin-4-yl]-3-trifluoromethyl-benzoyl}-guanidine] | 0.105 µM |
| CS(=O)(=O)c1cccc(C(=O)N2CCC(c3ccc(C(=O)NC(=N)N)cc3C(F)(F)F)CC2)c1 [N-{4-[1-(3-Methanesulfonyl-benzoyl)-piperidin-4-yl]-3-trifluoromethyl-benzoyl}-guanidine] | 0.063 µM |
| COc1cc(C(=O)N2CCC(c3ccc(C(=O)NC(=N)N)cc3C(F)(F)F)CC2)ccc1-c1cccnc1 [N-{4-[1-(3-Methoxy-4-pyridin-3-yl-benzoyl)-piperidin-4-yl]-3-trifluoromethyl-benzoyl}-guanidine] | 0.066 µM |
| COc1cccc(C(=O)N2CCC(c3ccc(C(=O)NC(=N)N)cc3C(F)(F)F)CC2)c1 [N-{4-[1-(3-Methoxy-benzoyl)-piperidin-4-yl]-3-trifluoromethyl-benzoyl}-guanidine] | 0.106 µM |
| COCCC(=O)N1CCC(c2ccc(C(=O)NC(=N)N)cc2C(F)(F)F)CC1 [N-{4-[1-(3-Methoxy-propionyl)-piperidin-4-yl]-3-trifluoromethyl-benzoyl}-guanidine] | 0.02 µM |
| COc1cccnc1C(=O)N1CCC(c2ccc(C(=O)NC(=N)N)cc2C(F)(F)F)CC1 [N-{4-[1-(3-Methoxy-pyridine-2-carbonyl)-piperidin-4-yl]-3-trifluoromethyl-benzoyl}-guanidine] | 0.055 µM |
| Cn1cncc1C(=O)N1CCC(c2ccc(C(=O)NC(=N)N)cc2C(F)(F)F)CC1 [N-{4-[1-(3-Methyl-3H-imidazole-4-carbonyl)-piperidin-4-yl]-3-trifluoromethyl-benzoyl}-guanidine] | 0.015 µM |

| SMILES | IC50 |
| --- | --- |
| CC(C)CC(=O)N1CCC(c2ccc(C(=O)NC(=N)N)cc2C(F)(F)F)CC1 [N-{4-[1-(3-Methyl-butyryl)-piperidin-4-yl]-3-trifluoromethyl-benzoyl}-guanidine] | 0.049 µM |
| N=C(N)NC(=O)c1ccc(C2CCN(C(=O)c3cccc(-c4cnco4)c3)CC2)c(C(F)(F)F)c1 [N-{4-[1-(3-Oxazol-5-yl-benzoyl)-piperidin-4-yl]-3-trifluoromethyl-benzoyl}-guanidine] | 0.014 µM |
| N=C(N)NC(=O)c1ccc(C2CCN(C(=O)CCc3ccccc3)CC2)c(C(F)(F)F)c1 [N-{4-[1-(3-Phenyl-propionyl)-piperidin-4-yl]-3-trifluoromethyl-benzoyl}-guanidine] | 0.075 µM |
| N=C(N)NC(=O)c1ccc(C2CCN(C(=O)c3cccc(-n4cccn4)c3)CC2)c(C(F)(F)F)c1 [N-{4-[1-(3-Pyrazol-1-yl-benzoyl)-piperidin-4-yl]-3-trifluoromethyl-benzoyl}-guanidine] | 0.15 µM |
| N=C(N)NC(=O)c1ccc(C2CCN(C(=O)c3cccc(-c4ccccn4)c3)CC2)c(C(F)(F)F)c1 [N-{4-[1-(3-Pyridin-2-yl-benzoyl)-piperidin-4-yl]-3-trifluoromethyl-benzoyl}-guanidine] | 0.147 µM |
| N=C(N)NC(=O)c1ccc(C2CCN(C(=O)c3cccc(-c4cccnc4)c3)CC2)c(C(F)(F)F)c1 [N-{4-[1-(3-Pyridin-3-yl-benzoyl)-piperidin-4-yl]-3-trifluoromethyl-benzoyl}-guanidine] | 0.14 µM |
| N=C(N)NC(=O)c1ccc(C2CCN(C(=O)c3cccc(S(=O)(=O)C(F)(F)F)c3)CC2)c(C(F)(F)F)c1 [N-{4-[1-(3-Trifluoromethanesulfonyl-benzoyl)-piperidin-4-yl]-3-trifluoromethyl-benzoyl}-guanidine] | 0.28 µM |
| CS(=O)(=O)c1cc(C(=O)NC(=N)N)ccc1C1CCN(C(=O)c2cccc(C#N)c2)CC1 [N-{4-[1-(3-cyano-benzoyl)-piperidin-4-yl]-3-methanesulfonyl-benzoyl}-guanidine] | 0.034 µM |
| Cc1cc(C2CCN(C(=O)c3cccc(C#N)c3)CC2)c(S(C)(=O)=O)cc1C(=O)NC(=N)N [N-{4-[1-(3-cyano-benzoyl)-piperidin-4-yl]-5-methanesulfonyl-2-methyl-benzoyl}-guanidine] | 0.023 µM |
| N=C(N)NC(=O)c1ccc(C2=CCN(C(=O)c3cnc[nH]3)CC2)c(C(F)(F)F)c1 [N-{4-[1-(3H-Imidazole-4-carbonyl)-1,2,3,6-tetrahydro-pyridin-4-yl]-3-trifluoromethyl-benzoyl}-guanidine] | 0.026 µM |
| N=C(N)NC(=O)c1ccc(C2CCN(C(=O)C3(N)CCS(=O)(=O)CC3)CC2)c(C(F)(F)F)c1 [N-{4-[1-(4-Amino-1,1-dioxo-hexahydro-g-thiopyran-4-carbonyl)-piperidin-4-yl]-3-trifluoromethyl-benzoyl}-guanidine] | 0.011 µM |
| N=C(N)NC(=O)c1ccc(C2CCN(C(=O)C3(N)CCOCC3)CC2)c(C(F)(F)F)c1 [N-{4-[1-(4-Amino-tetrahydro-pyran-4-carbonyl)-piperidin-4-yl]-3-trifluoromethyl-benzoyl}-guanidine] | 0.018 µM |
| N=C(N)NC(=O)c1ccc(C2CCN(C(=O)c3ccc(Cl)cc3)CC2)c(C(F)(F)F)c1 [N-{4-[1-(4-Chloro-benzoyl)-piperidin-4-yl]-3-trifluoromethyl-benzoyl}-guanidine] | 0.32 µM |
| N#Cc1ccc(C(=O)N2CCC(c3ccc(C(=O)NC(=N)N)cc3C(F)(F)F)CC2)cc1 [N-{4-[1-(4-Cyano-benzoyl)-piperidin-4-yl]-3-trifluoromethyl-benzoyl}-guanidine] | 0.024 µM |
| CN(C)c1ccc(C(=O)N2CCC(c3ccc(C(=O)NC(=N)N)cc3C(F)(F)F)CC2)cc1 [N-{4-[1-(4-Dimethylamino-benzoyl)-piperidin-4-yl]-3-trifluoromethyl-benzoyl}-guanidine] | 0.18 µM |
| N=C(N)NC(=O)c1ccc(C2CCN(C(=O)c3ccc(F)cc3C(F)(F)F)CC2)c(C(F)(F)F)c1 [N-{4-[1-(4-Fluoro-2-trifluoromethyl-benzoyl)-piperidin-4-yl]-3-trifluoromethyl-benzoyl}-guanidine] | 0.35 µM |
| COc1cc(C2CCN(C(=O)c3ccc(F)cc3)CC2)c(C(F)(F)F)cc1C(=O)NC(=N)N [N-{4-[1-(4-Fluoro-benzoyl)-piperidin-4-yl]-2-methoxy-5-trifluoromethyl-benzoyl}-guanidine] | 0.016 µM |
| Cc1cc(C2CCN(C(=O)c3ccc(F)cc3)CC2)c(C(F)(F)F)cc1C(=O)NC(=N)N [N-{4-[1-(4-Fluoro-benzoyl)-piperidin-4-yl]-2-methyl-5-trifluoromethyl-benzoyl}-guanidine] | 0.007 µM |
| CS(=O)(=O)c1cc(C(=O)NC(=N)N)ccc1C1CCN(C(=O)c2ccc(F)cc2)CC1 [N-{4-[1-(4-Fluoro-benzoyl)-piperidin-4-yl]-3-methanesulfonyl-benzoyl}-guanidine] | 0.018 µM |
| N=C(N)NC(=O)c1ccc(C2CCN(C(=O)c3ccc(F)cc3)CC2)c(C(F)(F)F)c1 [N-{4-[1-(4-Fluoro-benzoyl)-piperidin-4-yl]-3-trifluoromethyl-benzoyl}-guanidine] | 0.11 µM |
